Test results from patent US20160158200A1, “Combinations of Hepatitis C Virus Inhibitors” (priority 2013, published 2016).

Test system: HCV genotype-1a variant with glutamine 30 changed to glutamate in the NS5A protein
Assay type: cell-based
Details: test compound titrated with BMS-790052 fixed at 200 nM; genotype 1a Q30E replicon
In short: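 Synergy was assessed by combining several fixed amounts of an NS5A-targeting compound with a titration of the second compound of interest.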

Compound	Fold-Synergistic 1a (Q30E)
COCC(C)(C)C(=O)N[C@H](c1ncc(-c2ccc(-c3ccc(-c4cnc([C@@H](NC(=O)C(C)(C)COC)C(C)C)[nH]4)cc3)cc2)[nH]1)C(C)C [Compound P-70]	>100 fold
COC1(C(=O)N[C@H](c2nc(-c3ccc(-c4ccc(-c5c[nH]c([C@@H](NC(=O)C6(OC)CCC(F)(F)CC6)C(C)(C)C)n5)cc4)cc3)c[nH]2)C(C)(C)C)CCC(F)(F)CC1 [Compound P-34]	>100 fold
CC(C)(C)OC(=O)N1CC(F)(F)C[C@H]1C(=O)N[C@H](c1nc(-c2ccc(-c3ccc(-c4c[nH]c([C@@H](NC(=O)[C@@H]5CC(F)(F)CN5C(=O)OC(C)(C)C)C(C)(C)C)n4)cc3)cc2)c[nH]1)C(C)(C)C [Compound W-88]	>100 fold
CC(C)(C)C(NC(=O)C1(CO)CCCOC1)c1nc(-c2ccc(-c3ccc(-c4c[nH]c(C(NC(=O)C5(CO)CCCOC5)C(C)(C)C)n4)cc3)cc2)c[nH]1 (mixture of isomers) [Compound Y-101]	>100 fold
CC(C)(C)OC(=O)N1CC2CC2C1C(=O)NC(c1nc(-c2ccc(-c3ccc(-c4c[nH]c(C(NC(=O)C5C6CC6CN5C(=O)OC(C)(C)C)C(C)(C)C)n4)cc3)cc2)c[nH]1)C(C)(C)C (centres unmarked) [Compound W-79]	>100 fold
COC(=O)N[C@H](C(=O)N1CCC[C@H]1c1nc(-c2ccc(-c3ccc(-c4c[nH]c([C@@H](NC(=O)C5CCC(F)(F)CC5)C(C)C)n4)cc3)cc2)c[nH]1)C(C)C [Compound Y-49]	>100 fold
CC1(C(=O)N[C@H](c2nc(-c3ccc(-c4ccc(-c5c[nH]c([C@@H](NC(=O)C6(C)CCOCC6)C(C)(C)C)n5)cc4)cc3)c[nH]2)C(C)(C)C)CCOCC1 [Compound W-130]	>100 fold
COC(C)(CCO)C(=O)N[C@H](c1nc(-c2ccc(-c3ccc(-c4c[nH]c([C@@H](NC(=O)C(C)(CCO)OC)C(C)(C)C)n4)cc3)cc2)c[nH]1)C(C)(C)C (single isomer, unassigned) [Compound W-259]	>100 fold
CC(C)(C)C(NC(=O)C(C)(C)C(O)C1CC1)c1nc(-c2ccc(-c3ccc(-c4c[nH]c(C(NC(=O)C(C)(C)C(O)C5CC5)C(C)(C)C)n4)cc3)cc2)c[nH]1 (mixture of isomers) [Compound N-148]	>100 fold
CC(C)(C)[C@H](NC(=O)[C@@]1(C)CCC(F)(F)CO1)c1nc(-c2ccc(-c3cnc(-c4c[nH]c([C@@H](NC(=O)[C@@]5(C)CCC(F)(F)CO5)C(C)(C)C)n4)cn3)cc2)c[nH]1 [Compound N-130]	>100 fold
COC(=O)NC(C)(C)C(=O)N[C@H](c1nc(-c2ccc(-c3ccc(-c4c[nH]c([C@@H](NC(=O)C(C)(C)NC(=O)OC)C(C)(C)C)n4)cc3)cc2)c[nH]1)C(C)(C)C [Compound Q-1]	>100 fold
CC1CN(C(=O)C(=O)NC(c2nc(-c3ccc(-c4ccc(-c5c[nH]c(C(NC(=O)C(=O)N6CC(C)OC(C)C6)C(C)C)n5)cc4)cc3)c[nH]2)C(C)C)CC(C)O1 (centres unmarked) [Compound W-54]	>100 fold
CC(=O)N[C@H](c1ncc(-c2ccc(-c3ccc(-c4cnc([C@@H](NC(C)=O)C(C)C)[nH]4)cc3)cc2)[nH]1)C(C)C [Compound S-49]	>10 fold
CC1(C(=O)N[C@H](c2nc(-c3ccc(-c4ccc(-c5c[nH]c([C@@H](NC(=O)C6(C)CC(F)(F)CN6)C(C)(C)C)n5)cc4)cc3)c[nH]2)C(C)(C)C)CC(F)(F)CN1 (mixture of isomers) [Compound W-80]	>100 fold
COC(C)(C)C(=O)N[C@H](c1nc(-c2ccc(-c3ccc(-c4c[nH]c([C@@H](NC(=O)C(C)(C)OC)C(C)(C)C)n4)c(F)c3)cc2)c[nH]1)C(C)(C)C.O=C(O)C(F)(F)F [Compound N-94]	>100 fold
CC(C)(C)[C@H](NC(=O)[C@@]1(C)CCC(F)(F)CO1)c1nc(-c2ccc(-c3ccc(-c4c[nH]c([C@@H]5CCCN5C(=O)c5nccc6c(Cl)cccc56)n4)cc3)cc2)c[nH]1 [Compound Y-85, (R)—N—((S)-1-(4-(4′-(2-((S)-1-(5-chloroisoquinoline-1-carbonyl)pyrrolidin-2-yl)-1H-imidazol-4-yl)-[1,1′-biphenyl]-4-yl)-1H-imidazol-2-yl)-2,2-dimethylpropyl)-5,5-difluoro-2-methyltetrahydro-2H-pyran-2-carboxamide]	>100 fold
CC(C)[C@H](NC(=O)c1ccccc1Oc1ccccc1)c1ncc(-c2ccc(-c3ccc(-c4cnc([C@@H](NC(=O)c5ccccc5Oc5ccccc5)C(C)C)[nH]4)cc3)cc2)[nH]1 [Compound S-27]	>10 fold
COC(=O)NC(C(=O)NC(c1ncc(-c2ccc(-c3ccc(-c4cnc(C5CCCN5C(=O)C(NC(=O)OC)C(C)C)[nH]4)cc3)cc2)[nH]1)C(C)(C)C)C(C)C (centres unmarked) [Compound B-194]	<10 fold
CC(C)(C)[C@H](NC(=O)C1CCC(F)(F)CC1)c1ncc(-c2ccc([C@@H]3C[C@H]3c3ccc(-c4cnc([C@@H](NC(=O)C5CCC(F)(F)CC5)C(C)(C)C)[nH]4)cc3)cc2)[nH]1 [Compound B-190]	>100 fold

Compound	Fold-Synergistic 1a (Q30E)
CC(C)[C@H](NC(=O)N1CCC(F)(F)CC1)c1nc(-c2ccc(-c3ccc(-c4c[nH]c([C@@H](NC(=O)N5CCC(F)(F)CC5)C(C)C)n4)cc3)cc2)c[nH]1 [Compound P-130]	>100 fold
CC(C)C(NC(=O)C(=O)N1CCC(C(F)(F)F)CC1)c1nc(-c2ccc(-c3ccc(-c4c[nH]c(C(NC(=O)C(=O)N5CCC(C(F)(F)F)CC5)C(C)C)n4)cc3)cc2)c[nH]1 (centres unmarked) [Compound W-53]	>100 fold
CC(C)(C)[C@H](NC(=O)C1CCC(F)(F)CC1)c1nc2ccc(C#Cc3ccc4nc([C@@H](NC(=O)C5CCC(F)(F)CC5)C(C)(C)C)[nH]c4c3)cc2[nH]1 [Compound B38]	>100 fold
CC(C)(C)OC(=O)NC1(C(=O)N[C@H](c2nc(-c3ccc(-c4ccc(-c5c[nH]c([C@@H](NC(=O)C6(NC(=O)OC(C)(C)C)CC6(F)F)C(C)(C)C)n5)cc4)cc3)c[nH]2)C(C)(C)C)CC1(F)F (single isomer, unassigned) [Compound W-15]	>100 fold
CC(C)[C@H](N[S+]([O-])C(C)(C)C)c1ncc(-c2ccc(-c3ccc(-c4cnc([C@@H](N[S+]([O-])C(C)(C)C)C(C)C)[nH]4)cc3)cc2)[nH]1 (single isomer, unassigned) [Compound Y-59]	>100 fold
CC(C)[C@H](NC(=O)c1ccc2ccccc2c1)c1ncc(-c2ccc(-c3ccc(-c4cnc([C@@H](NC(=O)c5ccc6ccccc6c5)C(C)C)[nH]4)cc3)cc2)[nH]1 [Compound S-10]	>100 fold
Cc1nn(-c2ccccc2)nc1C(=O)N[C@H](c1ncc(-c2ccc(-c3ccc(-c4cnc([C@@H](NC(=O)c5nn(-c6ccccc6)nc5C)C(C)C)[nH]4)cc3)cc2)[nH]1)C(C)C [Compound S-95]	>10 fold
CC(=O)NC1(C(=O)N[C@H](c2nc(-c3ccc(-c4ccc(-c5c[nH]c([C@@H](NC(=O)C6(NC(C)=O)CCCCC6)C(C)(C)C)n5)cc4)cc3)c[nH]2)C(C)(C)C)CCCCC1 [Compound W-252]	>100 fold
CN1CCC(C(=O)N[C@H](c2nc(-c3ccc(-c4ccc(-c5c[nH]c([C@@H](NC(=O)C6CCN(C)CC6)C(C)(C)C)n5)cc4)cc3)c[nH]2)C(C)(C)C)CC1 [Compound S-268]	>10 fold
CN(C)C(=N[C@H](c1ncc(-c2ccc(-c3ccc(-c4cnc([C@@H](NC(=O)C5(C6(O)CCNCC6)CCC5)C(C)(C)C)[nH]4)cc3)cc2)[nH]1)C(C)(C)C)N(C)C [Compound B85]	>10 fold
CC(C)CC(=O)NC(C)(C)c1ncc(-c2ccc(-c3ccc(-c4cnc(C(C)(C)NC(=O)CC(C)C)[nH]4)cc3)cc2)[nH]1.O=C(O)C(F)(F)F.O=C(O)C(F)(F)F [Compound N-26]	<10 fold
CN(C(=O)OCCF)C(C)(C)C(=O)N[C@H](c1nc(-c2ccc(-c3ccc(-c4c[nH]c([C@@H](NC(=O)C(C)(C)N(C)C(=O)OCCF)C(C)(C)C)n4)cc3)cc2)c[nH]1)C(C)(C)C [Compound L-20]	>100 fold
Cc1cc(-c2ccc(-c3c[nH]c([C@@H](NC(=O)C4(C)CCCCC4)C(C)C)n3)cc2)ccc1-c1c[nH]c([C@@H](NC(=O)C2(C)CCCCC2)C(C)C)n1.O=C(O)C(F)(F)F [Compound N-79]	>100 fold
COC(C)(COCc1ccccc1)C(=O)N[C@H](c1nc(-c2ccc(-c3ccc(-c4c[nH]c([C@@H](NC(=O)C(C)(COCc5ccccc5)OC)C(C)(C)C)n4)cc3)cc2)c[nH]1)C(C)(C)C.O=C(O)C(F)(F)F.O=C(O)C(F)(F)F (single isomer, unassigned) [Compound W-231]	>100 fold
CC(C)(C)[C@H](NS(=O)(=O)N1CCOCC1)c1nc(-c2ccc(-c3ccc(-c4c[nH]c([C@@H](NS(=O)(=O)N5CCOCC5)C(C)(C)C)n4)cc3)cc2)c[nH]1 [Compound L-119]	>100 fold
CC(C)C(NC(=O)C1(N2CCC(F)(F)CC2)COC1)c1nc(-c2ccc(-c3ccc(-c4c[nH]c(C(NC(=O)C5(N6CCC(F)(F)CC6)COC5)C(C)C)n4)cc3)cc2)c[nH]1 (centres unmarked) [Compound W-64]	>100 fold
CC(C)(NC(=O)OC1CCCCC1)C(=O)N[C@H](c1nc(-c2ccc(-c3ccc(-c4c[nH]c([C@@H](NC(=O)C(C)(C)NC(=O)OC5CCCCC5)C(C)(C)C)n4)cc3)cc2)c[nH]1)C(C)(C)C [Compound Q-6]	>100 fold
CC1(C)CC1C(=O)N[C@H](c1ncc(-c2ccc(-c3ccc(-c4cnc([C@@H](NC(=O)C5CC5(C)C)C(C)(C)C)[nH]4)cc3)cc2)[nH]1)C(C)(C)C (single isomer, unassigned) [Compound B80]	>100 fold
CC(C)[C@H](NC(=O)[C@@H]1CCCCO1)c1ncc(-c2ccc(-c3ccc(-c4cnc([C@@H](NC(=O)[C@H]5CCCCO5)C(C)C)[nH]4)cc3)cc2)[nH]1 [Compound Y-56]	>100 fold
